In patent publication US20250091989A1, “SMALL MOLECULE PROTEIN SYNTHESIS MODULATORS” (Interdict Bio, Inc., priority 2023, published 2025):

What was measured:
Format in all cases: biochemical
Conditions in all cases: HeLa S3 lysate, sfGFP/mCherry ratio, 2 hrs at 30° C.
KRAS G12D = test: In vitro transcription-translation (IVTT) reporter assay, KRAS G12D test sequence
Outline: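 Compounds, half-log titrated 30 μM-0.1 μM in DMSO, were mixed with HeLa S3 lysate master mix and plasmid DNA, then incubated 2 h at 30 °C before PBS quench. Each construct fuses the CCND1, KRAS G12D, MCL-1 or BCL-2 sequence between 3×FLAG and sfGFP, downstream of mCherry-P2A.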

MYC = test: In vitro transcription-translation (IVTT) reporter assay, MYC test sequence
Outline: (§1)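 Coupled transcription-translation in HeLa S3 lysate with reporter plasmids encoding mCherry-P2A-3×FLAG-TEST-sfGFP behind an EMCV IRES. Compounds were half-log titrated (30 μM-0.1 μM in DMSO dilution plate) into master mix, then DNA was added. Reactions ran 2 hrs at 30° C, were PBS-quenched and read for fluorescence.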

ALK = test: In vitro transcription-translation (IVTT) reporter assay, ALK test sequence
Outline: as §1

IC50 (KRAS G12D) | IC50 (MYC) | IC50 (ALK) | Compound
< 10 µM | < 10 µM | < 10 µM | CC(=O)O[C@@H]1[C@@H](O)CN[C@@H]1Cc1ccc(C#N)cc1 [V187006, (2R,3S,4S)-2-[(4-cyanophenyl)methyl]-4-hydroxypyrrolidin-3-yl acetate; trifluoroacetic acid]
< 10 µM | < 10 µM | < 10 µM | COc1ccc(C[C@H]2NC[C@H](O)[C@H]2OC(=O)Cc2nnc(N)s2)cc1 [V187048, (2R,3S,4S)-4-hydroxy-2-[(4-methoxyphenyl)methyl]pyrrolidin-3-yl 2-(5-amino-1,3,4-thiadiazol-2-yl)acetate]
< 10 µM | < 10 µM | < 10 µM | COc1ccc(C[C@H]2NC[C@H](O)[C@H]2OC(=O)Cc2cc3ccccc3s2)cc1 [V187053, (2R,3S,4S)-4-hydroxy-2-[(4-methoxyphenyl)methyl]pyrrolidin-3-yl 2-(1-benzothiophen-2-yl)acetate]
< 10 µM | < 10 µM | < 10 µM | COc1ccc(C[C@H]2NC[C@H](O)[C@H]2OC(=O)Cc2cccnc2)cc1 [V187057, (2R,3S,4S)-4-hydroxy-2-[(4-methoxyphenyl)methyl]pyrrolidin-3-yl 2-(pyridin-3-yl)acetate]
> 30 µM | > 30 µM | 10 to 20 µM | COc1ccc(C[C@H]2NC[C@H](O)[C@H]2OC(=O)C2CC3(C2)CC(N(C)C)C3)cc1 (stereo partly drawn) [V187066, (2R,3S,4S)-4-hydroxy-2-[(4-methoxyphenyl)methyl]pyrrolidin-3-yl 6-(dimethylamino)spiro[3.3]heptane-2-carboxylate]
> 30 µM | 10 to 20 µM | < 10 µM | COc1ccc(C[C@H]2NC[C@H](O)[C@H]2OC(=O)Cc2ccc3ccccc3c2)cc1 [V187123, (2R,3S,4S)-4-hydroxy-2-[(4-methoxyphenyl)methyl]pyrrolidin-3-yl 2-(naphthalen-2-yl)acetate; trifluoroacetic acid]
> 30 µM | 10 to 20 µM | 10 to 20 µM | COc1ccc(C[C@H]2NC[C@H](O)[C@H]2OC(=O)Cc2ccc(OC(F)(F)F)cc2)cc1 [V187159, (2R,3S,4S)-4-hydroxy-2-[(4-methoxyphenyl)methyl]pyrrolidin-3-yl 2-[4-(trifluoromethoxy)phenyl]acetate]
< 10 µM | < 10 µM | < 10 µM | COc1ccc(C[C@H]2NC[C@H](O)[C@H]2OC(=O)CCC(F)(F)F)cc1 [V187163, (2R,3S,4S)-4-hydroxy-2-[(4-methoxyphenyl)methyl]pyrrolidin-3-yl 4,4,4-trifluorobutanoate; trifluoroacetic acid]
< 10 µM | < 10 µM | < 10 µM | COc1ccc(C[C@H]2NC[C@H](O)[C@H]2OC(=O)CCc2cscn2)cc1 [V187173, (2R,3S,4S)-4-hydroxy-2-[(4-methoxyphenyl)methyl]pyrrolidin-3-yl 3-(1,3-thiazol-4-yl)propanoate]
< 10 µM | < 10 µM | < 10 µM | COc1ccc(C[C@H]2NC[C@H](O)C2OC(=O)COCc2ccc3nonc3c2)cc1 (stereo partly drawn) [V187179]
< 10 µM | < 10 µM | < 10 µM | COCCOCCOCC(=O)O[C@@H]1[C@@H](O)CN[C@@H]1Cc1ccc(OC)cc1 [V187184, (2R,3S,4S)-4-hydroxy-2-[(4-methoxyphenyl)methyl]pyrrolidin-3-yl 2-[2-(2-methoxyethoxy)ethoxy]acetate]
> 30 µM | 20 to 30 µM | > 30 µM | COc1ccc(C[C@H]2NC[C@H](O)[C@H]2OC(=O)CC[C@@H]2NC(=O)C3(CNC3)NC2=O)cc1 [V187324, (2R,3S,4S)-4-hydroxy-2-[(4-methoxyphenyl)methyl]pyrrolidin-3-yl 3-[(7S)-6,9-dioxo-2,5,8-triazaspiro[3.5]nonan-7-yl]propanoate]
< 10 µM | < 10 µM | < 10 µM | COc1ccc(C[C@H]2NC[C@H](O)[C@H]2OC(=O)COCc2ccon2)cc1 [V187368, (2R,3S,4S)-4-hydroxy-2-[(4-methoxyphenyl)methyl]pyrrolidin-3-yl 2-(1,2-oxazol-3-ylmethoxy)acetate]

Compound | IC50 (KRAS G12D) | IC50 (MYC) | IC50 (ALK)
COc1ccc(C[C@H]2NC[C@H](O)[C@H]2OC(=O)C2CN(C(=O)C3CCOCC3)C2)cc1 [V186989, (2R,3S,4S)-4-hydroxy-2-[(4-methoxyphenyl)methyl]pyrrolidin-3-yl 1-(oxane-4-carbonyl)azetidine-3-carboxylate; trifluoroacetic acid] | > 30 µM | > 30 µM | > 30 µM
COc1ccc(C[C@H]2NC[C@H](O)[C@H]2OC(=O)CCC2CCOCC2)cc1 [V186990, (2R,3S,4S)-4-hydroxy-2-[(4-methoxyphenyl)methyl]pyrrolidin-3-yl 3-(oxan-4-yl)propanoate; trifluoroacetic acid] | < 10 µM | < 10 µM | < 10 µM
CC(=O)O[C@@H]1[C@@H](O)CN[C@@H]1Cc1ccc(Cl)cc1 [V187009, (2R,3S,4S)-2-[(4-chlorophenyl)methyl]-4-hydroxypyrrolidin-3-yl acetate; trifluoroacetic acid] | < 10 µM | < 10 µM | < 10 µM
CC(=O)O[C@@H]1[C@@H](O)CN[C@@H]1Cc1ccc(Br)cc1 [V187010, (2R,3S,4S)-2-[(4-bromophenyl)methyl]-4-hydroxypyrrolidin-3-yl acetate; trifluoroacetic acid] | < 10 µM | < 10 µM | < 10 µM
COc1ccc(C[C@H]2NC[C@H](O)[C@H]2OC(=O)C23CC(F)(C2)C3)cc1 [V187044, (2R,3S,4S)-4-hydroxy-2-[(4-methoxyphenyl)methyl]pyrrolidin-3-yl 3-fluorobicyclo[1.1.1]pentane-1-carboxylate; trifluoroacetic acid] | > 30 µM | 10 to 20 µM | < 10 µM
COc1ccc(C[C@H]2NC[C@H](O)[C@H]2OC(=O)CCC2CC2)cc1 [V187063, (2R,3S,4S)-4-hydroxy-2-[(4-methoxyphenyl)methyl]pyrrolidin-3-yl 3-cyclopropylpropanoate; trifluoroacetic acid] | < 10 µM | < 10 µM | < 10 µM
COc1ccc(C[C@H]2NC[C@H](O)[C@H]2OC(=O)COCc2ccc3nsnc3c2)cc1 [V187072, (2R,3S,4S)-4-hydroxy-2-[(4-methoxyphenyl)methyl]pyrrolidin-3-yl 2-(2,1,3-benzothiadiazol-5-ylmethoxy)acetate; trifluoroacetic acid] | < 10 µM | < 10 µM | < 10 µM
COc1ccc(C[C@H]2NC[C@H](O)[C@H]2OC(=O)C2CC(F)C2)cc1 (stereo partly drawn) [V187166, (2R,3S,4S)-4-hydroxy-2-[(4-methoxyphenyl)methyl]pyrrolidin-3-yl 3-fluorocyclobutane-1-carboxylate; trifluoroacetic acid] | < 10 µM | < 10 µM | < 10 µM
COc1ccc(C[C@H]2NC[C@H](O)[C@H]2OC(=O)Cc2noc(C)n2)cc1 [V187175, (2R,3S,4S)-4-hydroxy-2-[(4-methoxyphenyl)methyl]pyrrolidin-3-yl 2-(5-methyl-1,2,4-oxadiazol-3-yl)acetate; trifluoroacetic acid] | < 10 µM | < 10 µM | < 10 µM
